Assay results: US11110080B2, “Small molecule inhibitors of bacterial efflux pumps and methods of using same” (The Regents of the University of Colorado, a body Corporate, priority 2017, dated 2021)
Where “and” joins values, the source holds several entries; their conditions need not be identical. Identical values can stand only once. Entries after “also recorded” stand apart in the source; their conditions may differ. Like-named read-outs stand apart in the source and are kept apart here.

Legend:
[1] = system: K. pneumoniae; test: Nile Red export in MDR clinical isolate; format: cell-based, Klebsiella pneumoniae; details: after glucose addition
Text: (§1) Six pathogens that cause the bulk of MDR nosocomial infections have been dubbed the ESKAPE pathogens: Enterococcus faecium, Staphylococcus aureus, Klebsiella pneumoniae, Acinetobacter baumannii, Pseudomonas aeruginosa, and Enterobacter species (56).
(§2) Referring to FIGS. 22A-22D: Defined strains obtained from BEI resources were examined for Nile Red retention after glucose addition in the presence of the indicated compound. *p<0.05; **p<0.01; ***p<0.001; ****p<0.0001 as determined by comparison to DMSO+glucose with a one-way ANOVA and Dunnett's multiple comparison post-test.
(§3) Nile Red assays were adapted from an established protocol. Briefly, overnight Salmonella cultures were grown in Mueller-Hinton cation-adjusted broth (Sigma), washed, and resuspended at an OD600 of 2.0. Cells were incubated in 10 μM Nile Red for 3 hours at 37° C. with aeration, then moved to room temperature for 1 hour. After pelleting at 2000× g, dye-loaded cells were aliquoted and combined with compound at the indicated concentrations. Two hundred microliters was loaded into 96-well black walled plates (Greiner) and read using a Varioskan Flash Multimode Reader with 540 nm excitation and 625 nm emission filters. We observed that during loading into plates (˜20 minutes), bacteria were able to efflux Nile Red even in the absence of glucose (FIG. 8A). […]

[2] = system: Enterobacter cloacae; test: Nile Red export in MDR clinical isolate; format: cell-based; details: after glucose addition
Text: as §1, §2, §3

[3] = system: S.Tm; test: Swimming assay in soft agar (proton motive force); format: cell-based, Salmonella enterica serovar Typhimurium; details: 50 mM, 10 μl on disk (500×, 125×, ~62.5× the MIC for EPM30, EPM35, EPM43)
[4] = system: S.Tm efflux pumps; test: Hoechst 33342 accumulation assay; format: cell-based, Salmonella enterica serovar Typhimurium
Description: Efflux pumps (EPs) represent a key pathogen virulence strategy to protect against host antimicrobials as well as therapeutic antibiotics. […] To uncover putative EPMs within our collection of hits, 58 repurchased compounds were screened in a Hoechst accumulation assay. Bacteria were incubated with Hoechst 33342, a dye which fluoresces when bound to DNA.
Hoechst accumulation assays were performed essentially as described in the literature. Briefly, overnight Salmonella cultures were washed 3 times in PBS and diluted to an OD of 0.1 in PBS with 2.5 μM Hoechst 33342 in the presence of the indicated concentrations of compounds. Fluorescence was monitored on a Biotek Synergy 2 with a 360/40 nm excitation filter and 460/40 nm emission filter. The maximum Hoechst fluorescence over 60 minutes of incubation was normalized to the signal from the equivalent number of heat-killed bacteria, after subtraction of autofluroescent signal determined from compound incubated in the absence of bacteria. Curve fitting to determine EC50s was performed using GraphPad Prism.

[5] = system: E. coli; test: Nile Red export in E. coli; format: cell-based; details: after glucose addition
Text: as §1, §2, §3

[6] = system: extracellular S.Tm grown in MHB broth; test: Broth activity assay (growth / MIC in Mueller Hinton Broth); format: cell-based, Salmonella enterica serovar Typhimurium; details: Salmonella enterica, three Salmonella strains SL1344, MAR1, S10801
Description: (§4) Overnight Salmonella cultures were washed 3 times in PBS and diluted to an OD of 0.01 in Mueller Hinton Broth in 96-well flat bottom plates. Compound was added using a pin tool (CyBio) or manually, yielding a final concentration of no more than 1% DMSO. Plates were grown at 37° C. shaking and OD600 was monitored using a BioTek Eon incubator shaker microplate absorbance reader. For experiments in defined media, bacteria were grown in M9 minimal media supplemented with 100 mM Tris pH 7.4, 0.35% glycerol, 0.002% histidine, 10 mM MgCl2, and 0.1% casamino acids. Where indicated, media was supplemented with 5 μg/ml polymyxin B or 0.2 mM H2O2. For experiments with LL-37, bacteria were grown in M9 minimal media supplemented with 0.4% dextrose, 0.004% histidine, 1 mM MgSO4, and 5 μg/ml LL-37. For checkerboard assays, MIC was defined as the concentration at which no growth was visually observed.

[7] = system: S.Tm wild-type SL1344, MAR1 and S10801; test: microbe, parasite or virus in culture; format: cell-based, Salmonella enterica serovar Typhimurium; details: for sensitivity of MDR S.Tm to tetracycline: MAR1 and S10801
Description: Increased expression or function of efflux pumps often contributes to clinical multidrug resistance. Therefore, whether the EPMs re-sensitize two multidrug resistant strains of S.Tm to tetracycline was tested. Tetracycline is an antibiotic exported by AcrAB. The MAR1 strain is derived from wild-type SL1344 was selected by exposure to tetracycline, and has increased expression of the AcrAB efflux pump. S10801 is an MDR strain isolated from the mesenteric lymph node of a septic calf and is resistant to tetracycline, ampicillin, chloramphenicol, nalidixic acid, and triple sulfa. The basis of multi-drug resistance in this strain is unknown.
as §4

| SMILES | Nile Red export [1] | Nile Red export [2] | halo in swimming assay [3] | Hoechst accumulation / fluorescence [4] | Nile Red export [5] | MIC [6] | sensitivity of MDR S.Tm to tetracycline [7] | Hoechst assay EC50 relative to PAβN [4] | Hoechst accumulation / fluorescence ([4]; wild-type S.Tm, 60 minutes) | decrease of the tetracycline MIC ([7]; 50 μM (⅛ MIC), both strains MAR1 and S10801) [fold] |
| --- | --- | --- | --- | --- | --- | --- | --- | --- | --- | --- |
| Cc1ccc(Sc2cccc3nc(N)nc(N)c23)cc1 [EPM43] | significantly reduced Nile Red export | significantly reduced Nile Red export | formed no halo | increased S.Tm accumulation of Hoechst in a dose-dependent manner; also recorded: fluorescence comparable to that of PAβN | significantly reduced Nile Red export | > 400 µM and 113 µg/mL | not |  |  |  |
| OC(COc1ccc(Cl)c(Cl)c1)CN1CCC(Nc2nccc(C(F)(F)F)n2)CC1 (stereo not shown) [EPM35] | significantly reduced Nile Red export | significantly reduced Nile Red export | formed a small halo |  | significantly reduced Nile Red export | 400 µM and 186 µg/mL | increased sensitivity to tetracycline | lower than that of PAβN | increased S.Tm accumulation of Hoechst in a dose-dependent manner; also recorded: fluorescence comparable to that of PAβN | 4 |
